Data from patent US9833497B2, “Human originated EGF domain proteins and use of the same” (CHENGDU SOURCEBIO LIMITED-LIABILITY COMPANY, priority 2013, dated 2017).

Tests used:
Type in all cases: cell-based
E. coli DH5α = test: Antibacterial activity: MIC and growth curve against E. coli DH5α in 96-well plate; settings: minimal inhibitory concentration against E. coli DH5α; 96-well plate, 5×10^5 CFU/mL, 37° C., judged after 8 h
In short: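 MIC taken as lowest protein level with no bacterial growth, tracked by A600 every 30 min during 37 °C, 175 rpm culture. Two-fold protein series 50-12.5 μg/mL final, triplicate wells, against 5×10^5 CFU/mL of LB-washed mid-log cells.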

E. coli BL21 = test: MIC against Gram-negative bacteria: E. coli BL21; settings: 5×10^5 CFU/mL
In short: (§1)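 Antibacterial activity of purified human EGF domain proteins: two-fold concentration series, triplicate wells, LB broth, 5×10^5 CFU/mL bacteria, 37° C shaking incubation. The lowest concentration without growth defines the MIC.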

Pseudomonas aeruginosa = test: MIC against Gram-negative bacteria: Pseudomonas aeruginosa; settings: 5×10^5 CFU/mL
In short: as §1

Klebsiella pneumonia = test: MIC against Gram-negative bacteria: Klebsiella pneumonia; settings: 5×10^5 CFU/mL
In short: as §1

Enterobacter cloacae = test: MIC against Gram-negative bacteria: Enterobacter cloacae; settings: 5×10^5 CFU/mL
In short: as §1

Aeromonas hydrophila = test: MIC against Gram-negative bacteria: Aeromonas hydrophila; settings: 5×10^5 CFU/mL
In short: as §1

Citrobacter diversus = test: MIC against Gram-negative bacteria: Citrobacter diversus; settings: 5×10^5 CFU/mL
In short: as §1

Moraxella catarrhalis = test: MIC against Gram-negative bacteria: Moraxella catarrhalis; settings: 5×10^5 CFU/mL
In short: as §1

Proteus mirabilis = test: MIC against Gram-negative bacteria: Proteus mirabilis; settings: 5×10^5 CFU/mL
In short: as §1

Proteus vulgaris = test: MIC against Gram-negative bacteria: Proteus vulgaris; settings: 5×10^5 CFU/mL
In short: as §1

Serratia marcescens = test: MIC against Gram-negative bacteria: Serratia marcescens; settings: 5×10^5 CFU/mL
In short: as §1

[1] = E. coli BL21, 10 h cultivation at 37° C.
[2] = 10 h cultivation at 37° C., two-fold serial dilution

PRT634 (DIDECQHRHLCAHGQCRNTEGSFQCVCDQGYRASGLGDHCE; listed as Homo sapiens)
MIC (E. coli DH5α): 12.5 mg/L | MIC E. coli BL21 (E. coli BL21; 96-well plate, 37° C., 10 h): 25 mg/L | MIC P. aeruginosa (Pseudomonas aeruginosa; 96-well plate, 37° C., 10 h): 50 mg/L | MIC K. pneumonia (Klebsiella pneumonia; 96-well plate, 37° C., 10 h): 25 mg/L | MIC E. cloacae (Enterobacter cloacae; 96-well plate, 37° C., 10 h): 12.5 mg/L | MIC A. hydrophila (Aeromonas hydrophila; 96-well plate, 37° C., 10 h): 25 mg/L | MIC C. diversus (Citrobacter diversus; 96-well plate, 37° C., 10 h): 12.5 mg/L | MIC M. catarrhalis (Moraxella catarrhalis; 96-well plate, 37° C., 10 h): 25 mg/L | MIC P. mirabilis (Proteus mirabilis; 96-well plate, 37° C., 10 h): 25 mg/L | MIC P. vulgaris (Proteus vulgaris; 96-well plate, 37° C., 10 h): 12.5 mg/L | MIC S. marcescens (Serratia marcescens; 96-well plate, 37° C., 10 h): 25 mg/L

PRT1355 (AELSCPNDCHGQGRCVNGQCVCHEGFMGKDCK; listed as Homo sapiens)
MIC (E. coli DH5α): 50 mg/L | MIC against E. coli BL21 (E. coli BL21; [1]): 25 mg/L | MIC against P. aeruginosa (Pseudomonas aeruginosa; Pseudomonas aeruginosa, 10 h cultivation at 37° C.): 12.5 mg/L | MIC against K. pneumonia (Klebsiella pneumonia; Klebsiella pneumonia, 10 h cultivation at 37° C.): 25 mg/L | MIC against E. cloacae (Enterobacter cloacae; Enterobacter cloacae, 10 h cultivation at 37° C.): 50 mg/L | MIC against A. hydrophila (Aeromonas hydrophila; Aeromonas hydrophila, 10 h cultivation at 37° C.): 12.5 mg/L | MIC against C. diversus (Citrobacter diversus; Citrobacter diversus, 10 h cultivation at 37° C.): 50 mg/L | MIC against M. catarrhalis (Moraxella catarrhalis; Moraxella catarrhalis, 10 h cultivation at 37° C.): 12.5 mg/L | MIC against P. mirabilis (Proteus mirabilis; Proteus mirabilis, 10 h cultivation at 37° C.): 25 mg/L | MIC against P. vulgaris (Proteus vulgaris; Proteus vulgaris, 10 h cultivation at 37° C.): 50 mg/L | MIC against S. marcescens (Serratia marcescens; Serratia marcescens, 10 h cultivation at 37° C.): 25 mg/L

PRT198 (CQPKTCNMRGICNNKQHCHCNHEWAPPYC; listed as Homo sapiens)
MIC (E. coli DH5α): 12.5 mg/L | MIC (μg/mL) E. coli BL21 (E. coli BL21; [1]): 12.5 µg/mL | MIC (μg/mL) P. aeruginosa (Pseudomonas aeruginosa; P. aeruginosa, 10 h cultivation at 37° C.): 12.5 µg/mL | MIC (μg/mL) K. pneumonia (Klebsiella pneumonia; K. pneumonia, 10 h cultivation at 37° C.): 50 µg/mL | MIC (μg/mL) E. cloacae (Enterobacter cloacae; E. cloacae, 10 h cultivation at 37° C.): 12.5 µg/mL | MIC (μg/mL) A. hydrophila (Aeromonas hydrophila; A. hydrophila, 10 h cultivation at 37° C.): 25 µg/mL | MIC (μg/mL) C. diversus (Citrobacter diversus; C. diversus, 10 h cultivation at 37° C.): 50 µg/mL | MIC (μg/mL) M. catarrhalis (Moraxella catarrhalis; M. catarrhalis, 10 h cultivation at 37° C.): 25 µg/mL | MIC (μg/mL) P. mirabilis (Proteus mirabilis; P. mirabilis, 10 h cultivation at 37° C.): 12.5 µg/mL | MIC (μg/mL) P. vulgaris (Proteus vulgaris; P. vulgaris, 10 h cultivation at 37° C.): 25 µg/mL | MIC (μg/mL) S. marcescens (Serratia marcescens; S. marcescens, 10 h cultivation at 37° C.): 50 µg/mL

PRT1339 (EINNCLLPSAGGCHDNASCLYVGPGQNECECKKGFRGNGIDCE; listed as Homo sapiens)
MIC (E. coli DH5α): 25 mg/L | MIC against E. coli BL21 (E. coli BL21; E. coli BL21, 96-well plate, 37° C., 10 h): 12.5 mg/L | MIC against P. aeruginosa (Pseudomonas aeruginosa; Pseudomonas aeruginosa, 96-well plate, 37° C., 10 h): 12.5 mg/L | MIC against K. pneumonia (Klebsiella pneumonia; Klebsiella pneumonia, 96-well plate, 37° C., 10 h): 25 mg/L | MIC against E. cloacae (Enterobacter cloacae; Enterobacter cloacae, 96-well plate, 37° C., 10 h): 12.5 mg/L | MIC against A. hydrophila (Aeromonas hydrophila; Aeromonas hydrophila, 96-well plate, 37° C., 10 h): 50 mg/L | MIC against C. diversus (Citrobacter diversus; Citrobacter diversus, 96-well plate, 37° C., 10 h): 25 mg/L | MIC against M. catarrhalis (Moraxella catarrhalis; Moraxella catarrhalis, 96-well plate, 37° C., 10 h): 12.5 mg/L | MIC against P. mirabilis (Proteus mirabilis; Proteus mirabilis, 96-well plate, 37° C., 10 h): 25 mg/L | MIC against P. vulgaris (Proteus vulgaris; Proteus vulgaris, 96-well plate, 37° C., 10 h): 50 mg/L | MIC against S. marcescens (Serratia marcescens; Serratia marcescens, 96-well plate, 37° C., 10 h): 25 mg/L

PRT524 (CNCSRRGTIEAAMPECDRDSGQCRCKPRITGRQCDRCASGFYRFPECVP; listed as Homo sapiens)
MIC (E. coli DH5α): 12.5 mg/L | MIC against E. coli BL21 (E. coli BL21; 96-well plate, 37° C., 10 h): 12.5 mg/L | MIC against P. aeruginosa (Pseudomonas aeruginosa; 96-well plate, 37° C., 10 h): 12.5 mg/L | MIC against K. pneumonia (Klebsiella pneumonia; 96-well plate, 37° C., 10 h): 25 mg/L | MIC against E. cloacae (Enterobacter cloacae; 96-well plate, 37° C., 10 h): 12.5 mg/L | MIC against A. hydrophila (Aeromonas hydrophila; 96-well plate, 37° C., 10 h): 25 mg/L | MIC against C. diversus (Citrobacter diversus; 96-well plate, 37° C., 10 h): 100 mg/L | MIC against M. catarrhalis (Moraxella catarrhalis; 96-well plate, 37° C., 10 h): 25 mg/L | MIC against P. mirabilis (Proteus mirabilis; 96-well plate, 37° C., 10 h): 12.5 mg/L | MIC against P. vulgaris (Proteus vulgaris; 96-well plate, 37° C., 10 h): 25 mg/L | MIC against S. marcescens (Serratia marcescens; 96-well plate, 37° C., 10 h): 50 mg/L

PRT1091 (DVNECSSNPCQNGGTCENLPGNYTCHCPFDNLSRTFYGGRDCS; listed as Homo sapiens)
MIC (E. coli DH5α): 12.5 mg/L | MIC E. coli BL21 (E. coli BL21; [2]): 50 mg/L | MIC P. aeruginosa (Pseudomonas aeruginosa; [2]): 12.5 mg/L | MIC K. pneumonia (Klebsiella pneumonia; [2]): 25 mg/L | MIC E. cloacae (Enterobacter cloacae; [2]): 50 mg/L | MIC A. hydrophila (Aeromonas hydrophila; [2]): 25 mg/L | MIC C. diversus (Citrobacter diversus; [2]): 12.5 mg/L | MIC M. catarrhalis (Moraxella catarrhalis; [2]): 25 mg/L | MIC P. mirabilis (Proteus mirabilis; [2]): 50 mg/L | MIC P. vulgaris (Proteus vulgaris; [2]): 25 mg/L | MIC S. marcescens (Serratia marcescens; [2]): 12.5 mg/L

PRT533 (GTINSNLGYCQCKLHVEGPTCSRCKLLYWNLDKENPSGCSE; listed as Homo sapiens)
MIC (E. coli DH5α): 50 mg/L | MIC against E. coli BL21 (E. coli BL21; 96-well plate, 37° C., 10 h): 25 mg/L | MIC against P. aeruginosa (Pseudomonas aeruginosa; 96-well plate, 37° C., 10 h): 100 mg/L | MIC against K. pneumonia (Klebsiella pneumonia; 96-well plate, 37° C., 10 h): 25 mg/L | MIC against E. cloacae (Enterobacter cloacae; 96-well plate, 37° C., 10 h): 50 mg/L | MIC against A. hydrophila (Aeromonas hydrophila; 96-well plate, 37° C., 10 h): 25 mg/L | MIC against C. diversus (Citrobacter diversus; 96-well plate, 37° C., 10 h): 12.5 mg/L | MIC against M. catarrhalis (Moraxella catarrhalis; 96-well plate, 37° C., 10 h): 25 mg/L | MIC against P. mirabilis (Proteus mirabilis; 96-well plate, 37° C., 10 h): 50 mg/L | MIC against P. vulgaris (Proteus vulgaris; 96-well plate, 37° C., 10 h): 25 mg/L | MIC against S. marcescens (Serratia marcescens; 96-well plate, 37° C., 10 h): 12.5 mg/L
